Assay results taken from patent US20020098186A1, “Use of endothelin inhibitors for treatment or prevention of fibrotic disorders” (priority 1999, published 2002).

Legend:
[1] = system: aminoterminal propeptide of procollagen type III (PIIINP); assay: Serum PIIINP radioimmunoassay in BDO rats; assay type: in vivo, rat; conditions: LU-treated BDO rats, dose-dependent
Protocol: Female adult wistar rats, average weight 206±19 g, underwent the following microsurgical procedure under an operating microscope (OPMI 6-2, Zeiss, Germany) (B. Gerling, M. Becker, J. Waldschmidt, D. Schuppan (1996). J. Hepatol. 25:79-84; G. Boigk, L. Stroedter, H. Herbst H, et al. (1997). Hepatology 26:643-639.): 1. midline abdominal incision following anaesthesia with 100 mg/kg ketamine-hydroochloride (Ketanest®, Parke-Davis, Germany) and 10 mg/kg 5,6-dihydro-2-(2,6-xylidino)-4H-1,3-thiazine-hydrochloride (Rompun®, Bayer, Germany); 2. dissection of the common bile duct, insertion of a teflon catheter (Abbocath -T 26 G, venisystems, U.S.A.) and placement of a distal complete and a proximal incomplete ligature with 5-0 silk (Permahand , Ethicon, Germany); 3. retrograde injection of sodium-amidotrizoate (Ethibloc®, Ethicon Germany) at a dose of 0.02 ml/100 g body weight; 4. removal of the catheter, closure of the proximal ligature, scission of the bile duct between the ligatures and wound closure. After bile duct occlusion (BDO), animals received normal chow (Altromin®, Lage, Germany) and were allowed free access to water. […] The following therapeutic groups were formed: 1. BDO and LU at 80 mg/kg/d for 6 weeks (BDO 80/1-6:n=20); 2. […]
Standard laboratory parameters were measured by our in-hospital clinical chemical department, using an automated analyser (BM/Hitachi 747). […]

[2] = Tolerability in BDO and sham-operated rats (death, renal toxicity, food consumption, measured parameters); assay type: in vivo
Protocol: Female adult wistar rats, average weight 206±19 g, underwent the following microsurgical procedure under an operating microscope (OPMI 6-2, Zeiss, Germany) (B. Gerling, M. Becker, J. Waldschmidt, D. Schuppan (1996). J. Hepatol. 25:79-84; G. Boigk, L. Stroedter, H. Herbst H, et al. (1997). Hepatology 26:643-639.): 1. midline abdominal incision following anaesthesia with 100 mg/kg ketamine-hydroochloride (Ketanest®, Parke-Davis, Germany) and 10 mg/kg 5,6-dihydro-2-(2,6-xylidino)-4H-1,3-thiazine-hydrochloride (Rompun®, Bayer, Germany); 2. dissection of the common bile duct, insertion of a teflon catheter (Abbocath -T 26 G, venisystems, U.S.A.) and placement of a distal complete and a proximal incomplete ligature with 5-0 silk (Permahand , Ethicon, Germany); 3. retrograde injection of sodium-amidotrizoate (Ethibloc®, Ethicon Germany) at a dose of 0.02 ml/100 g body weight; 4. removal of the catheter, closure of the proximal ligature, scission of the bile duct between the ligatures and wound closure. After bile duct occlusion (BDO), animals received normal chow (Altromin®, Lage, Germany) and were allowed free access to water. […] The following therapeutic groups were formed: 1. BDO and LU at 80 mg/kg/d for 6 weeks (BDO 80/1-6:n=20); 2. BDO and LU at 80 mg/kg/d from week 4-6 of BDO (BDO 80/4-6:n=20); 3. BDO and LU at 10 mg/kg/d (sham 80/ 1-6:n=10), rats without medication (control: n=10) and bile duct occluded animals without treatment for 6 weeks (BDO: n=20) served as controls.
(§1) Early mortality (within 1 h to 3 days) in rats with BDO was due to local infection and amounted to 9%. […] After 6 weeks rats were sacrificed under ketanest(rompun-anaesthesia by puncture of the right ventricle and exsanguination. Heart, liver, spleen and kidneys were weighed, and 1-2 g pieces of the left and the right liver lobes fixed in 4% formalin for histology and hydroxyproline (HYP) determinations.
Rats with sham operation and rats with BDO were fed the oral endothelin A receptor antagonist LU 135252 (LU).
However, liver collagen (both as relative and total liver collagen content), which was increased 6- and 12-fold above normal, resp., in the untreated group with BDO, was reduced by 50-55% in rats on 80 mg LU/kg/d over the 6 weeks of BDO (p<0.001) (FIG. 1). […] Since contrary to the sham-operated rats, LU at 80 mg/kg/d which represents a high dose, caused death dose-dependently due to rental tubular necrosis in 50% and 25% of the two treatment groups, resp., a second experiment with a lower dose (10 mg/kg/d) over 6 weeks of BDO was performed.

[3] = Clinical chemical serum parameters in BDO and sham-operated rats; assay type: in vivo, rat; conditions: for ALP / ALT / AST / Bili (total bilirubin) / γGT: serum, mean ± SD
Protocol: (§2) Female adult wistar rats, average weight 206±19 g, underwent the following microsurgical procedure under an operating microscope (OPMI 6-2, Zeiss, Germany) (B. Gerling, M. Becker, J. Waldschmidt, D. Schuppan (1996). J. Hepatol. 25:79-84; G. Boigk, L. Stroedter, H. Herbst H, et al. (1997). Hepatology 26:643-639.): 1. midline abdominal incision following anaesthesia with 100 mg/kg ketamine-hydroochloride (Ketanest®, Parke-Davis, Germany) and 10 mg/kg 5,6-dihydro-2-(2,6-xylidino)-4H-1,3-thiazine-hydrochloride (Rompun®, Bayer, Germany); 2. dissection of the common bile duct, insertion of a teflon catheter (Abbocath -T 26 G, venisystems, U.S.A.) and placement of a distal complete and a proximal incomplete ligature with 5-0 silk (Permahand , Ethicon, Germany); 3. retrograde injection of sodium-amidotrizoate (Ethibloc®, Ethicon Germany) at a dose of 0.02 ml/100 g body weight; 4. removal of the catheter, closure of the proximal ligature, scission of the bile duct between the ligatures and wound closure. After bile duct occlusion (BDO), animals received normal chow (Altromin®, Lage, Germany) and were allowed free access to water. […] The following therapeutic groups were formed: 1. BDO and LU at 80 mg/kg/d for 6 weeks (BDO 80/1-6:n=20); 2. BDO and LU at 80 mg/kg/d from week 4-6 of BDO (BDO 80/4-6:n=20); 3. […]
Standard laboratory parameters were measured by our in-hospital clinical chemical department, using an automated analyser (BM/Hitachi 747). The aminoterminal propeptide of procollagen type III (PIIINP) was determined using a sequential saturation radioimmunoassay based on PIINP from rat, a monospecific rabbit antiserum to rat PIIINP and a goat antiserum to rabbit IgG, using a previously described procedure (B. Gerling, M. Becker, J. Waldschmidt, D. Schuppan (1996). J. Hepatol. 25:79-84; G. Boigk, L. Stroedter, H. Herbst H, et al. (1997). Hepatology 26:643-649; d. Schuppan, J. M. Dumont, K. Y. Kim, et al. (1986). J. Hepatol. 3:27-37.). Inter- and intra-assay coefficients of variation were 12% and 5% for a normal and 4% and 3% for a pathological serum sample, resp.

[4] = Body and organ weights of rats with bile duct occlusion (BDO) or sham operation; assay type: in vivo
Protocol: as §2, §1

[5] = system: rat secondary biliary liver fibrosis (BDO); assay: Histological assessment (staging) of liver fibrosis in BDO rats; assay type: in vivo; conditions: Sham (sham operation with LU 80 mg/kg/d 6 weeks)
[6] = system: desmin-positive cells (rat hepatic stellate cells); assay: Desmin staining of liver sections (activated hepatic stellate cells); assay type: in vivo; conditions: LU-treated animals (data not shown)
[7] = BDO/LU 80/1-6 (n = 10): BDO, LU 80 mg/kg/d week 1-6
[8] = BDO/LU 80/4-6 (n = 14): BDO, LU 80 mg/kg/d week 4-6
[9] = Sham/LU: sham operation, LU 80 mg/kg/d for 6 weeks, n = 10
[10] = BDO/LU 80/1-6: BDO, LU 80 mg/kg/d week 1-6, n = 10
[11] = BDO/LU 80/4-6: BDO, LU 80 mg/kg/d week 4-6, n = 14

COc1cc(OC)nc(O[C@H](C(=O)O)C(OC)(c2ccccc2)c2ccccc2)n1 [LU]
Lowering of serum PIIINP [1]: 20-50%
Death or renal toxicity ([2]; BDO rats, 10 mg/kg/d over 6 weeks): no death or renal toxicity was observed
Death due to renal tubular necrosis (share of treatment group) ([2]; BDO rats, LU 80 mg/kg/d for 6 weeks): 50%
Death due to renal tubular necrosis (share of treatment group) ([2]; BDO rats, LU 80 mg/kg/d from week 4-6): 25%
Food consumption by the animals ([2]; LU mixed with the chow): did not alter food consumption
Measured parameters (body and organ weights, liver collagen, liver histology, clinical chemical values) ([2]; sham-operated rats, LU 80 mg/kg/d for 6 weeks): did not alter any of the measured parameters
Clinical chemical serum parameters (AST, ALT, alkaline phosphatase, gamma glutamyltranspeptidase, total bilirubin, creatinine) ([3]; all groups with BDO): did not differ between all groups with BDO
ALP ([3]; headed BDO/LU 80/1-6 (n = 20)): 256.1 ± 49.6 U/L
ALT ([3]; headed BDO/LU 80/1-6 (n = 20)): 22 ± 8.4 U/L
AST ([3]; headed BDO/LU 80/1-6 (n = 20)): 198 ± 56.7 U/L
Bili (total bilirubin) ([3]; headed BDO/LU 80/1-6 (n = 20)): 189.5 ± 43.2 µmol/L
γGT ([3]; headed BDO/LU 80/1-6 (n = 20)): 15 ± 6.4 U/L
ALP [3, 7]: 230.7 ± 55.7 U/L
ALT [3, 7]: 23.6 ± 10.8 U/L
AST [3, 7]: 160.9 ± 78.5 U/L
Bili (total bilirubin) [3, 7]: 171.3 ± 49.5 µmol/L
γGT [3, 7]: 32.7 ± 24.4 U/L
ALP [3, 8]: 253.1 ± 75.8 U/L
ALT [3, 8]: 40.2 ± 52 U/L
AST [3, 8]: 229 ± 78.5 U/L
Bili (total bilirubin) [3, 8]: 209.9 ± 48.9 µmol/L
γGT [3, 8]: 28.1 ± 26.4 U/L
ALP [3, 9]: 85.3 ± 17.9 U/L
ALT [3, 9]: 21.7 ± 3.3 U/L
AST [3, 9]: 36.4 ± 7.9 U/L
Bili (total bilirubin) [3, 9]: 1.6 ± 0.5 µmol/L
γGT [3, 9]: 0.3 ± 0.5 U/L
B.W. [4, 10]: 293.0 ± 32.89 g
Liver W. [4, 10]: 24.73 ± 4.47 g
Spleen W. [4, 10]: 1.78 ± 0.47 g
B.W. [4, 11]: 259.1 ± 30.2 g
Liver W. [4, 11]: 23.01 ± 5.33 g
Spleen W. [4, 11]: 1.62 ± 0.46 g
B.W. [4, 9]: 305.8 ± 23.40 g
Liver W. [4, 9]: 11.98 ± 1.95 g
Spleen W. [4, 9]: 0.73 ± 0.08 g
Liver and spleen weights ([4]; rats with BDO): reduced liver and spleen weights dose-dependently
Weights of kidneys, heart and lungs ([4]; rats with BDO, high and low dose groups (not shown)): neither nor the low dose groups demonstrated significant differences
Histological assessment of fibrosis: animals at Stage 0 [5]: 10
Number of desmin-positive cells in liver sections [6]: significantly reduced
